Experimental data: ChEMBL document CHEMBL5131564, “Discovery of Potent and Selective Receptor-Interacting Serine/Threonine Protein Kinase 2 (RIPK2) Inhibitors for the Treatment of Inflammatory Bowel Diseases (IBDs)” (J Med Chem, 2022)
The source made the active and inactive calls. No cut-off for these calls is given here.

Tests used:
[1] = Clearance in Balb/C mouse plasma at 10 mg/kg, iv measured upto 48 hrs by LC-MS/MS analysis; assay type: ADME, organism-based
[2] = Metabolic stability in human liver microsomes assessed as half life at 1 uM by LC/MS/MS analysis; assay type: ADME, Microsome
[3] = molecular target: Epithelial discoidin domain-containing receptor 1 (Homo sapiens, UniProt Q08345); assay: Inhibition of human DDR1 by kinase assay
Epithelial discoidin domain-containing receptor 1, sequence (Q08345 whole entry, the tested form may be a part): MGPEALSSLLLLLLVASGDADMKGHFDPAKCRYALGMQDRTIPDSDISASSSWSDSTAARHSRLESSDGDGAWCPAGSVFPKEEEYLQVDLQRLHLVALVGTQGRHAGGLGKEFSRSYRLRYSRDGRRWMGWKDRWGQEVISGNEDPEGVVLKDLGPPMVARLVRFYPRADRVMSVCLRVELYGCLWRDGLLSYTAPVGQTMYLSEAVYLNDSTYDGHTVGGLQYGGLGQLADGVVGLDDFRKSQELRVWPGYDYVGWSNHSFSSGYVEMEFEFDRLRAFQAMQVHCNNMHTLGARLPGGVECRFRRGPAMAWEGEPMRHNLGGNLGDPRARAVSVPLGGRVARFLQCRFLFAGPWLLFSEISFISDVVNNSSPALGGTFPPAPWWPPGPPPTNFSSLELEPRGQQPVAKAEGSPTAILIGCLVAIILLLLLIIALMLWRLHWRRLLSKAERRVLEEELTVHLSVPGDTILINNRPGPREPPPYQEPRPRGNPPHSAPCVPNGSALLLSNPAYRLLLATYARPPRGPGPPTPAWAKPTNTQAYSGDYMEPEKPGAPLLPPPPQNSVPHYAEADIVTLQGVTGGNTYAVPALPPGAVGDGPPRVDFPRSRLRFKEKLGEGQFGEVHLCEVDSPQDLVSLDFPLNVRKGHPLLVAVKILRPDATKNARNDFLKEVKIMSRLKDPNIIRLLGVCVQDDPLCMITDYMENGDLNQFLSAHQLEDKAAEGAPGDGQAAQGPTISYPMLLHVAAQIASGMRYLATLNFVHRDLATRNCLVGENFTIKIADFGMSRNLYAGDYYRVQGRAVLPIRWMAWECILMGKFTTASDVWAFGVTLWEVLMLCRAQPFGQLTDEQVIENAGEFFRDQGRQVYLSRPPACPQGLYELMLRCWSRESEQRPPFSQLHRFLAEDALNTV

[4] = molecular target: Platelet-derived growth factor receptor beta (Homo sapiens, UniProt P09619); assay: Inhibition of human PDGFRbeta by kinase assay
Platelet-derived growth factor receptor beta, sequence (P09619 whole entry): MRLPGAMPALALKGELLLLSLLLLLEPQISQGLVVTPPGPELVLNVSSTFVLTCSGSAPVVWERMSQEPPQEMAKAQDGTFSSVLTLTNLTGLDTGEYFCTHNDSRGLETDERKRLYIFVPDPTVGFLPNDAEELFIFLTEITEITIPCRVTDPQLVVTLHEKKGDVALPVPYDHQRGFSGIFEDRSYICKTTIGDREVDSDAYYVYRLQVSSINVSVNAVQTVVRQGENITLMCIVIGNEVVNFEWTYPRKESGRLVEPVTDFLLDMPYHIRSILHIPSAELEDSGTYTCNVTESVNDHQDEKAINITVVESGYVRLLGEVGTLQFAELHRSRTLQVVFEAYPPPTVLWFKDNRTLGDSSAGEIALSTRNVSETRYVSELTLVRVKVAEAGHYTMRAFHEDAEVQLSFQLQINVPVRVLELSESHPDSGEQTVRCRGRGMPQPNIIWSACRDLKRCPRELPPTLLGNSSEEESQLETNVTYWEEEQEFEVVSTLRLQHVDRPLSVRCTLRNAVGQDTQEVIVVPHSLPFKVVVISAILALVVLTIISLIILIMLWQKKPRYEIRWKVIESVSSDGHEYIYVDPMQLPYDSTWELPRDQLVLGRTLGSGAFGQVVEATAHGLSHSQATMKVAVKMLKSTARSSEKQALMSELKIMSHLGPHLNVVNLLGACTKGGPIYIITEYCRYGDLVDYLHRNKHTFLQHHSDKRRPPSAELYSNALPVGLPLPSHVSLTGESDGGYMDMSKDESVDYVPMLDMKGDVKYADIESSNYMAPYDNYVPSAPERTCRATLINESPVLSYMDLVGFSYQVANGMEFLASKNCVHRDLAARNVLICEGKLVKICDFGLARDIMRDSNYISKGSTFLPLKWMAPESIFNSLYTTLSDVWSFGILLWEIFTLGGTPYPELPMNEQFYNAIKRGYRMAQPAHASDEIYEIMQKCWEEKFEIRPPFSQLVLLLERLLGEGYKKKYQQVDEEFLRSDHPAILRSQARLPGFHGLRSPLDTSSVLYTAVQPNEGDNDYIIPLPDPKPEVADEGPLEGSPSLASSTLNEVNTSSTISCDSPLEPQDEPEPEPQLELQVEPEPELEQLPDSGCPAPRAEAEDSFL

[5] = molecular target: Mast/stem cell growth factor receptor Kit (Homo sapiens, UniProt P10721); assay: Inhibition of human KIT by kinase assay
Mast/stem cell growth factor receptor Kit, sequence (P10721 whole entry): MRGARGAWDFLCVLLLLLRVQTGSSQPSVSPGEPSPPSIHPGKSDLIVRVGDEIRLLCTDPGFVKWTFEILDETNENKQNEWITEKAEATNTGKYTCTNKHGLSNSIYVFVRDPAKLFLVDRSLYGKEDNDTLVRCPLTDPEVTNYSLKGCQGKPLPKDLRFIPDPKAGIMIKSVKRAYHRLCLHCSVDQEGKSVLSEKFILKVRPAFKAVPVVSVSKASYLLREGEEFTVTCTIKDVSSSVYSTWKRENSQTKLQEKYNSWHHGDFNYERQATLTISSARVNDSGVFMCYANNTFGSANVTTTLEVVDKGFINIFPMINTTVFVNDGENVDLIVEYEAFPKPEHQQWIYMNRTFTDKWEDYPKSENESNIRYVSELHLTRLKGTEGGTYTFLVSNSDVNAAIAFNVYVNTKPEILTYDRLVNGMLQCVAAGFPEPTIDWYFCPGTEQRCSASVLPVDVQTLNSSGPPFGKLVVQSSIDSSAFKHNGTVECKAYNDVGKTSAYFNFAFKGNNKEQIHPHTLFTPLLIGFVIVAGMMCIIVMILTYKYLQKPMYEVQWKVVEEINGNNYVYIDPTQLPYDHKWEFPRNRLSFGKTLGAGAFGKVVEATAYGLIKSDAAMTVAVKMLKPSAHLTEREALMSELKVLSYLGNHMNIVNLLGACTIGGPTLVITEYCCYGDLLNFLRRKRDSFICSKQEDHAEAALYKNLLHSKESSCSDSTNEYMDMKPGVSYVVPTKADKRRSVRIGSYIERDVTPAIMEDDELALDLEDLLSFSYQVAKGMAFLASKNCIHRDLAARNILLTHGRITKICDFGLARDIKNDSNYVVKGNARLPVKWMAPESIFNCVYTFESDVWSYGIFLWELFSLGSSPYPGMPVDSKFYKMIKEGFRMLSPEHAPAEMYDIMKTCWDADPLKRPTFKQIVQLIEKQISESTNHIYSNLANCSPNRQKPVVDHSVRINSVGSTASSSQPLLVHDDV

[6] = molecular target: T1, Receptor-type tyrosine-protein kinase FLT3 (Homo sapiens, UniProt P36888); assay: Inhibition of human FLT3 by kinase assay
T1 sequence (P36888 whole entry): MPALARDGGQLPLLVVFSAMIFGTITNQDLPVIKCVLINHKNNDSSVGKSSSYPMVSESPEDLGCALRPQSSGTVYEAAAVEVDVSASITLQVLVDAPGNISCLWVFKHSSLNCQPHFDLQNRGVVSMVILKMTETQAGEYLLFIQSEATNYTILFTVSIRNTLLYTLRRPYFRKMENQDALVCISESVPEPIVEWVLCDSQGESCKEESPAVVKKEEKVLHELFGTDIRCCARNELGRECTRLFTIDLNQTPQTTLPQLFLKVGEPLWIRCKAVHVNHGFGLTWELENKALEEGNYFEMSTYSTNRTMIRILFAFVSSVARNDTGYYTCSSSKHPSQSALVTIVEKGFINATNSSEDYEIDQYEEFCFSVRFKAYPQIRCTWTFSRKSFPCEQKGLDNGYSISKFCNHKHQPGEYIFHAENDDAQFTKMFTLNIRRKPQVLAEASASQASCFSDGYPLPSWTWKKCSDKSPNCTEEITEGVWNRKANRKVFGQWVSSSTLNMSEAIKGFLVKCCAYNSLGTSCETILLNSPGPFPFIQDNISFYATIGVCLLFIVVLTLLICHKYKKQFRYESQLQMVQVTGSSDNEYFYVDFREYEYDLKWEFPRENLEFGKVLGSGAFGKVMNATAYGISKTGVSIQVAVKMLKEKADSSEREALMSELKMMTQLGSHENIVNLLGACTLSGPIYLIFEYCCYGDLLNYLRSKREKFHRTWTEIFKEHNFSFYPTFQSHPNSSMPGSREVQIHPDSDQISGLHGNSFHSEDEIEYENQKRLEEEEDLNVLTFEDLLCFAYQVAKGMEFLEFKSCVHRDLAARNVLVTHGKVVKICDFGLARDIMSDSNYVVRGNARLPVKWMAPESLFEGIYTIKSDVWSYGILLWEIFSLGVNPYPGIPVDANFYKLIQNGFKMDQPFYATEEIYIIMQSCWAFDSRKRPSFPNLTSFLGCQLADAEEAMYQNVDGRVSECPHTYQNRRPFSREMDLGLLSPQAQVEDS

[7] = molecular target: Receptor-interacting serine/threonine-protein kinase 2 (Homo sapiens, UniProt O43353); assay: Binding affinity to human RIPK2 in HEK293 cells; assay type: cell-based
Receptor-interacting serine/threonine-protein kinase 2, sequence (O43353 whole entry): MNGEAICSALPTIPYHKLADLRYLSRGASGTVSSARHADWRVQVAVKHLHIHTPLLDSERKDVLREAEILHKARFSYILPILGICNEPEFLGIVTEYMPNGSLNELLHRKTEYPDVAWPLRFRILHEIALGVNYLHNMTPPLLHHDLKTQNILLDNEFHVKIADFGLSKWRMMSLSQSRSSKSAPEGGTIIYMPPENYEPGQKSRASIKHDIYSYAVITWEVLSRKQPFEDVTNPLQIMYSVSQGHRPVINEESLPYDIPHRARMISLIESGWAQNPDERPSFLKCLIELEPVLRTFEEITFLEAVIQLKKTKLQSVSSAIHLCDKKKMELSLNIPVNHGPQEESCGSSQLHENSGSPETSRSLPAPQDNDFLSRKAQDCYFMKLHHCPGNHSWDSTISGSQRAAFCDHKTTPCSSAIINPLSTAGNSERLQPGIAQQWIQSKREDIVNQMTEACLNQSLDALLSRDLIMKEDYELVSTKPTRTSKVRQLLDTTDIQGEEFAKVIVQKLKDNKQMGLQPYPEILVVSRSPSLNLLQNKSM

[8] = molecular target: T2, Dual serine/threonine and tyrosine protein kinase (Homo sapiens, UniProt Q6XUX3); assay: Binding affinity to human RIPK5
T2 sequence (Q6XUX3 whole entry): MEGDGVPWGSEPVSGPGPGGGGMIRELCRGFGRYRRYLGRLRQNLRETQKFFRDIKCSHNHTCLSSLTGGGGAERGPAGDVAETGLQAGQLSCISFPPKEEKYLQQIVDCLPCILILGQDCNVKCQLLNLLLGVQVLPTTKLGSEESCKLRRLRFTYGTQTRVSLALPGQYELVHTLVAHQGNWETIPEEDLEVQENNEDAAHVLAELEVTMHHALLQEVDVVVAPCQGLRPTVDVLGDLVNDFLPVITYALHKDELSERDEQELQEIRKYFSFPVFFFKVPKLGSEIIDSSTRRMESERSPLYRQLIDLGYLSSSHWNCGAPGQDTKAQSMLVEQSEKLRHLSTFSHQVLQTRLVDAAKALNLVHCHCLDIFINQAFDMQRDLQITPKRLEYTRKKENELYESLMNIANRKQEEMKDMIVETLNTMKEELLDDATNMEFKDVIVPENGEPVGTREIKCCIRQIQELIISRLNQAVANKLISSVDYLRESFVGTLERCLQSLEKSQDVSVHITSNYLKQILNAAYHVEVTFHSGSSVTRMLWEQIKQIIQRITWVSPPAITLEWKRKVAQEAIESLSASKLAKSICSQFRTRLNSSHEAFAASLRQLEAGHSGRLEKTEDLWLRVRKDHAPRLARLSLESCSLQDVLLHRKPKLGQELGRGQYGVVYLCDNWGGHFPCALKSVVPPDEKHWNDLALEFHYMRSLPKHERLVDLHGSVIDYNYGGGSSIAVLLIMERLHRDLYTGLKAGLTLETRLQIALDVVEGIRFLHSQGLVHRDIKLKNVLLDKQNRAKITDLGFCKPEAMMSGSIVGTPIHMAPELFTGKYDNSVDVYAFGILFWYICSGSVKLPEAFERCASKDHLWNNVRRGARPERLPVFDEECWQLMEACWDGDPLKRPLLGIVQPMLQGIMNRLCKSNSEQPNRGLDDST

[9] = Cmax in Balb/C mouse at 10 mg/kg, iv measured upto 48 hrs by LC-MS/MS analysis; assay type: ADME, organism-based; parameters: dose 10 mg/kg, time < 48 hrs, route iv; conditions: in vivo
[10] = Cmax in Balb/C mouse at 10 mg/kg, po measured upto 48 hrs by LC-MS/MS analysis; assay type: ADME, organism-based; parameters: dose 10 mg/kg, time < 48 hrs, route po; conditions: in vivo
[11] = Elimination half life in Balb/C mouse at 10 mg/kg, iv measured upto 48 hrs by LC-MS/MS analysis; assay type: ADME, organism-based; conditions: in vivo, read-out: beta t1/2 (converted)
[12] = Elimination half life in Balb/C mouse at 10 mg/kg, po measured upto 48 hrs by LC-MS/MS analysis; assay type: ADME, organism-based; conditions: in vivo, read-out: beta t1/2 (converted)
[13] = Clearance in Balb/C mouse plasma at 10 mg/kg, po measured upto 48 hrs by LC-MS/MS analysis; assay type: ADME, organism-based
[14] = Volume of distribution in Balb/C mouse at 10 mg/kg, iv measured upto 48 hrs by LC-MS/MS analysis; assay type: ADME, organism-based; conditions: in vivo
[15] = Oral bioavailability in Balb/C mouse at 10 mg/kg measured upto 48 hrs by LC-MS/MS analysis; assay type: ADME, organism-based; conditions: in vivo
Mus musculus [16] = assay: Anti-inflammatory activity against DSS-induced acute ulcerative colitis C57BL/6 mouse model assessed as reduction in disease severity at 20 to 40 mg/kg, po once a day measured after 2 days followed by 7 days after DSS treatment; assay type: functional, organism-based; conditions: dose 20-40 mg/kg, time 2.0 day
Mus musculus [17] = assay: Anti-inflammatory activity against DSS-induced acute ulcerative colitis C57BL/6 mouse model assessed as reduction in fecal occult blood at 20 to 40 mg/kg, po once a day measured after 2 days followed by 7 days after DSS treatment; assay type: functional, organism-based; conditions: dose 20-40 mg/kg, time 2.0 day
[18] = Drug uptake in DSS-induced acute ulcerative colitis C57BL/6 mouse model assessed as drug concentration in colon at 20 mg/kg, po after 8 hrs; assay type: ADME, organism-based; conditions: read-out: Drug uptake

clearance [1]: 166 mL/min/kg
half-life at 1 µM [2]: > 2 h
IC50 [3]: 15 nM
IC50 [4]: 862 nM
IC50 [5]: 1510 nM
IC50 [6]: 4780 nM
Kd [7]: 0.28 nM
Kd [8]: 670 nM
Cmax [9]: 959 ng/mL
Cmax [10]: 68.1 ng/mL
half-life [11]: 3.9 h
half-life [12]: 3.62 h
CL/F [13]: 1130 mL/min/kg
Vd [14]: 43.9 L/kg
bioavailability [15]: 15.1%
Structure (SMILES): Cc1ccc(-c2cn([C@H]3CC[C@@H](N)CC3)c3ncnc(N)c23)c(F)c1
Activity (Mus musculus [16]): Active
Activity (Mus musculus [17]): Active
concentration at 8 h [18]: 9140 ng/g
